Measurements: patent publication US6706740B2, “Fungicidal heterocyclic aromatic amides and their compositions, methods of use and preparation” (Dow AgroSciences LLC, priority 1999, dated 2004)
Read-outs that look alike come from different tables or passages of the source.

Experiments:
[1] = tested on: Leptosphaeria nodorum—LEPTNO; assay: Glume Blotch of Wheat, in vivo whole plant, 24 Hour Protectant; details: for pest or weed control at 100 ppm: Leptosphaeria, read-out: LEPTNO in vivo 1 Day Protectant
[2] = tested on: Rhizoctonia solani (RHIZSO); assay: microbe, parasite or virus in culture; assay type: cell-based; details: Rhizoctonia solani, read-out: RHIZSO in vitro Growth Inhibition
[3] = tested on: Stagonospora nodorum (Leptosphaeria nodorum—LEPTNO); assay: In vitro fungal growth inhibition, Stagonospora nodorum (LEPTNO); assay type: cell-based; details: Leptosphaeria, read-out: LEPTNO in vitro Growth Inhibition
[4] = tested on: Phytophthora infestans (PHYTIN); assay: microbe, parasite or virus in culture; assay type: cell-based; details: Phytophthora infestans, read-out: PHYTIN in vitro Growth Inhibition
Septoria tritici—SEPTTR = assay: Leaf Blotch of Wheat, in vivo whole plant, 24 Hour Protectant; details: for pest or weed control at 100 ppm: Zymoseptoria tritici, 24 h, control of fungal infection vs untreated plants, read-out: SEPTTR in vivo 1 Day Protectant
Ustilago maydis (USTIMA) = assay: microbe, parasite or virus in culture; assay type: cell-based; details: Mycosarcoma maydis, read-out: USTIMA in vitro Growth Inhibition
[5] = tested on: Mycosphaerella graminicola (Septoria tritici—SEPTTR); assay: In vitro fungal growth inhibition, Mycosphaerella graminicola (SEPTTR); assay type: cell-based; details: Zymoseptoria tritici, read-out: SEPTTR in vitro Growth Inhibition
[6] = tested on: Magnaporthe grisea (Pyricularia oryzae—PYRIOR); assay: microbe, parasite or virus in culture; assay type: cell-based; details: Pyricularia oryzae, read-out: PYRIOR in vitro Growth Inhibition
[7] = tested on: Phytophthora infestans—PHYTIN; assay: whole plant or invertebrate; assay type: in vivo; details: Phytophthora, in Solanum lycopersicum, 24 h, read-out: PHYTIN in vivo 1 Day Protectant
Erysiphe graminis—ERYSGT = assay: Powdery Mildew of Wheat, in vivo whole plant, 24 Hour Protectant; details: Erysiphe, read-out: ERYSGT in vivo 1 Day Protectant
[8] = tested on: Puccinia recondita—PUCCRT; assay: Brown Rust of Wheat, in vivo whole plant, 24 Hour Protectant; details: for pest or weed control at 100 ppm: Puccinia, read-out: PUCCRT in vivo 1 Day Protectant
[9] = 100 ppm spray, wheat, 24 hour protectant, control of fungal infection vs untreated plants
[10] = 100 ppm spray, wheat, 24 hour protectant
[11] = wheat plants sprayed at 100 ppm, inoculated after 24 hours, control of fungal infection vs untreated plants
[12] = wheat plants sprayed at 100 ppm, inoculated after 24 hours
[13] = 100 ppm spray, wheat, 24 hour protectant, % control of fungal infection vs untreated plants

COc1ccnc(C(=O)NC(COC(=O)CCc2ccccc2)C(=O)OC(C)COC(=O)C(C)C)c1O (centres unmarked) [Compound 358]
pest or weed control at 100 ppm [1, 9]: 25 to 74%
inhibition at 25 ppm [2]: < 80%
inhibition at 25 ppm ([3]; 25 ppm in growth medium): < 80%
inhibition at 25 ppm [4]: < 80%
pest or weed control at 100 ppm (Septoria tritici—SEPTTR; [10]): 25 to 74%
inhibition at 25 ppm (Ustilago maydis (USTIMA)): < 80%
inhibition at 25 ppm ([5]; 25 ppm in growth medium): < 80%
inhibition at 25 ppm [6]: < 80%
pest or weed control at 100 ppm [7]: < 25%
pest or weed control at 100 ppm (Erysiphe graminis—ERYSGT; [9]): < 25%
pest or weed control at 100 ppm [8, 9]: 25 to 74%

O=C(NCc1ccccc1)c1ccncc1O [Compound 506]
pest or weed control at 100 ppm [1, 11]: < 25%
inhibition at 25 ppm [2]: < 80%
inhibition at 25 ppm ([3]; 25 ppm in the growth medium): < 80%
inhibition at 25 ppm [4]: < 80%
pest or weed control at 100 ppm (Septoria tritici—SEPTTR; [12]): < 25%
inhibition at 25 ppm (Ustilago maydis (USTIMA)): < 80%
inhibition at 25 ppm ([5]; 25 ppm in the growth medium): < 80%
inhibition at 25 ppm [6]: < 80%
pest or weed control at 100 ppm [7]: < 25%
pest or weed control at 100 ppm (Erysiphe graminis—ERYSGT; [11]): < 25%
pest or weed control at 100 ppm [8, 11]: < 25%

COC(=O)C(COC(=O)CCc1ccccc1)NC(=O)c1nccc(OC)c1O (centres unmarked) [Compound 344]
pest or weed control at 100 ppm [1, 9]: 25 to 74%
inhibition at 25 ppm [2]: < 80%
inhibition at 25 ppm ([3]; 25 ppm in growth medium): > 80%
inhibition at 25 ppm [4]: < 80%
pest or weed control at 100 ppm (Septoria tritici—SEPTTR; [10]): 25 to 74%
inhibition at 25 ppm (Ustilago maydis (USTIMA)): < 80%
inhibition at 25 ppm ([5]; 25 ppm in growth medium): < 80%
inhibition at 25 ppm [6]: < 80%
pest or weed control at 100 ppm [7]: < 25%
pest or weed control at 100 ppm (Erysiphe graminis—ERYSGT; [9]): < 25%
pest or weed control at 100 ppm [8, 9]: < 25%

COc1cccc(Oc2cccc(NC(=O)c3nccc(OC)c3O)c2)c1 [Compound 431]
pest or weed control at 100 ppm [1, 9]: < 25%
inhibition at 25 ppm [2]: < 80%
inhibition at 25 ppm ([3]; 25 ppm in growth medium): > 80%
inhibition at 25 ppm [4]: < 80%
pest or weed control at 100 ppm (Septoria tritici—SEPTTR; [10]): 25 to 74%
inhibition at 25 ppm (Ustilago maydis (USTIMA)): < 80%
inhibition at 25 ppm ([5]; 25 ppm in growth medium): > 80%
inhibition at 25 ppm [6]: < 80%
pest or weed control at 100 ppm [7]: < 25%
pest or weed control at 100 ppm (Erysiphe graminis—ERYSGT; [9]): < 25%
pest or weed control at 100 ppm [8, 9]: < 25%

C/C=C/C(=O)Oc1c(OC)ccnc1C(=O)N[C@H]1COC(=O)[C@H](Cc2ccccc2)[C@@H](OC(=O)C(C)C)[C@H](C)OC1=O [Compound 600]
LEPTNO in vivo 1 Day Protectant [1, 13]: + +
inhibition at 25 ppm [2]: < 80%
inhibition at 25 ppm ([3]; 25 ppm in growth medium): > 80%
inhibition at 25 ppm [4]: < 80%
SEPTTR in vivo 1 Day Protectant (Septoria tritici—SEPTTR; [13]): + +
inhibition at 25 ppm (Ustilago maydis (USTIMA)): < 80%
inhibition at 25 ppm ([5]; 25 ppm in growth medium): < 80%
inhibition at 25 ppm [6]: > 80%
pest or weed control at 100 ppm [7]: < 25%
pest or weed control at 100 ppm (Erysiphe graminis—ERYSGT; [13]): < 25%
PUCCRT in vivo 1 Day Protectant [8, 13]: + +

COc1ccnc(C(=O)NC(C(=O)OCC(C)C)C(C)OC(=O)C(C)Cc2ccccc2)c1O (centres unmarked) [Compound 360]
LEPTNO in vivo 1 Day Protectant [1, 9]: + +
inhibition at 25 ppm [2]: < 80%
inhibition at 25 ppm ([3]; 25 ppm in growth medium): < 80%
inhibition at 25 ppm [4]: < 80%
pest or weed control at 100 ppm (Septoria tritici—SEPTTR; [10]): 25 to 74%
inhibition at 25 ppm (Ustilago maydis (USTIMA)): < 80%
inhibition at 25 ppm ([5]; 25 ppm in growth medium): < 80%
inhibition at 25 ppm [6]: < 80%
pest or weed control at 100 ppm [7]: < 25%
pest or weed control at 100 ppm (Erysiphe graminis—ERYSGT; [9]): < 25%
pest or weed control at 100 ppm [8, 9]: 25 to 74%

COc1ccnc(C(=O)N[C@H]2CO[C@H](C(C)Cc3ccc(C(C)(C)C)cc3)OC2)c1OC(C)=O (some centres unmarked) [Compound 594]
pest or weed control at 100 ppm [1, 11]: 25 to 74%
inhibition at 25 ppm [2]: > 80%
inhibition at 25 ppm ([3]; 25 ppm in the growth medium): > 80%
inhibition at 25 ppm [4]: < 80%
pest or weed control at 100 ppm (Septoria tritici—SEPTTR; [12]): 25 to 74%
inhibition at 25 ppm (Ustilago maydis (USTIMA)): < 80%
inhibition at 25 ppm ([5]; 25 ppm in the growth medium): > 80%
inhibition at 25 ppm [6]: > 80%
pest or weed control at 100 ppm [7]: < 25%
pest or weed control at 100 ppm (Erysiphe graminis—ERYSGT; [11]): < 25%
PUCCRT in vivo 1 Day Protectant [8, 11]: + +
